Experimental data reported in patent publication US5863716A, “Treatment of plasmodium” (The Leland Stanford Junior University Board of Trustees, priority 1997, dated 1999).

Tests used:
[1] = system: P. falciparum schizonts and merozoites; test: Schizont maturation and merozoite invasion in the presence of drug; type: cell-based, Plasmodium falciparum; conditions: 5 μM
Experimental: Schizont-stage parasites isolated over Percoll were allowed to invade in the presence of RPMI 1640 containing 10% human serum or in the presence of RPMI 1640 containing 10% human serum and 5 μM PPMP. 1×10^8 infected erythrocytes of the appropriate stage were incubated in 1 ml of RPMI 1640 supplemented with 2mg/ml defatted BSA and 20 μM C5 -DMB-ceramide. Cells were washed and fixed as described in Example 5. Sequential micrographs were taken on a custom made laser confocal microscope at 400 nm intervals along the Z axis. Raw data were processed as described previously.
Furthermore, the released daughter merozoites enter red cells to form new rings in the continued presence of the drug. This supports the conclusion that the parasite sphingomyelin synthase is essential only to ring and trophozoite-infected red cells in the first 30 to 36 h of intraerythrocytic development.
To determine whether the parasite specific sphingomyelin synthase activity is required for the development of the TVM, ring-infected erythrocytes inhibited in the enzyme from the onset of intra- erythrocytic development were employed. […] Optical sections obtained by staining with C5 DMB-ceramide were observed. A tubular structure was seen extending from the body of the parasite apparently connected to a larger vesicle in the red cell. In rings formed in the presence of PPMP, the intraerythrocytic structures are seen as discrete domains, separated from each other in all three sections. […] Thus, specific inhibition of the parasite's sphingomyelin biosynthetic activity appears to alter the interconnected "tubovesicular morphology" of the TVM into isolated intraerythrocytic compartments or "vesicles" in ring stage parasites.

[2] = system: protein synthesis; test: Effect on protein synthesis; type: cell-based
[3] = system: P. chabaudi; test: Single cycle of expansion in culture, mouse malaria; type: cell-based
Excerpt: (§1) The human malaria parasite P. falciparum can be grown in monkeys but not in rodents. However, since primates are expensive, rodents are used as a animal first screen. P. yoelii and P. chabaudi are commonly used strains of mouse malaria.

[4] = system: P. yoelii; test: as above; type: cell-based
Excerpt: as §1

[5] = Toxicity in mice; conditions: mouse, in vivo; over 16 days; preliminary studies; read-out: dose with no significant toxicity
Experimental: Preparation of test compounds, toxicity and pharmacokinetics in mice: PPMP and its derivatives are made up as a stock solution in ethanol, diluted into sterile saline, warmed up to 37° C. and delivered once or several times a day, either intraperitoneally (i.p.) or intravenously (i.v.). The animals are monitored on a daily basis for signs of toxicities which (from mild to extreme) include abnormal grooming behavior, loss or thinning of hair, enlargement of spleen and loss of activity. 0 to 30 micrograms PPMP/per gm of mouse body weight is administered. Effective anti-parasite concentrations of PPMP are predicted to be at ~2 micrograms of PPMP/gm of mouse body weight. Based on preliminary studies, 8-10 micrograms of PPMP per gram of (mouse) body weight have no significant toxicity over 16 days. Compounds and levels found to be non toxic over 30 days will be further tested for their effects on infections of P. yoelii and P. chabaudi.

[6] = system: sphingomyelin synthase; test: Inhibition of plasmodial sphingomyelin biosynthesis in intact infected erythrocytes (C6-NBD-ceramide to C6-NBD-sphingomyelin, TLC); type: cell-based, Plasmodium falciparum
Experimental: 1×10^8 infected cells 24 h after invasion were washed serum-free in RPMI 1640 and preincubated for thirty min at 37° C. in 1 ml of RPMI 1640 containing 0-5 μM or 0-500 μM of PPMP. (C6-NBD-ceramide (N-[7-(4-nitrobenzo-2-oxa-1,3-diazide)]-6-aminocaproyl-D-erythro-sphingosine) was added to each sample at a final concentration of 5 μM, the samples further incubated for 30 min at 37° C. and cellular lipids extracted. C6-NBD-sphingomyelin was resolved by TLC and quantitated by fluorescence spectrophotometry as described previously. Bligh, E. G. and Dyer, W. Y. (1959) A rapid method for total lipid extraction and purification., Can. J. Biochem. Physiol. 37: 911-917. Haldar, K., Uyetake, L., Ahori, N., Elmendorf, H. G. and Lu, W-1. (1991) The accumulation and metabolism of a fluorescent ceramide derivative in Plasmodium falciparum--infected erythrocytes., Mo. Biochem. Parasitol. 49: 143-156. Elmendorf, H. G. and Haldar, K. (1994) Plasmodium falciparum exports the Golgi marker sphingomyelin synthase into a tubovesicular network in the cytoplasm of mature erythrocytes., J. Cell Biol. 124: 449-462. Each value obtained represented the mean of triplicate determinations from five experiments. The arrow bars indicate the standard deviations. The results are depicted in FIG. 1.
P. falciparum strain FCB was used for all experiments and cultured in vitro in according to a modification of the method of Trager and Jensen left off. Trager, W. and Jensen, J. B. (1976) Human malaria in continuous culture., Science (Wash. D.C.) 193: 673-675 Haldar, K., Ferguson, M. A. J. and Cross, G. A. M. (1985) Acylation of a Plasmodium falciparum merozoite surface antigen via sn-1, 2-diacyl glycerol. J. Biol. Chem. 260; 4969-4974. The culture medium contained RPMI 1640 supplemented with 25 Mm hepes, Ph 7.4/11 […] glucose/92 μM hypoxanthine/0.18% sodium bicarbonate/25 μM gentamicin and 10% AB^+ human sera. The parasites were grown in A^+ erythrocytes at 2.5-5% hematocrit. Parasite cultures were synchronized by separation of the early and late stages on a Percoll gradient. The subsequent reincubation of these stages in culture were used to obtain cells 12-24 h in the life cycle. Inhibition of sphingomyelin biosynthetic activity using 5 μM of the various compounds was carried out as described in Example 1. 5 μM of the various compounds were added to 0-12 h rings in the culture medium and cells were examined by Giemsa staining after 24 h.

[7] = system: DNA synthesis; test: Effect on DNA synthesis; type: cell-based

Structure (SMILES): CCCCCCCCCCCCCCCC(=O)N[C@H](CN1CCOCC1)[C@H](O)c1ccccc1 (relative stereo) [PPMP, dl-threo-1-phenyl-2-palmitoylamino-3-morpholino-1-propanol]
- effect on schizont maturation and merozoite invasion into erythrocytes [1]: not to block either schizont maturation or merozoite invasion into erythrocytes
- fate of schizonts greater than 40 h in the cycle [1]: mature and rupture
- development of rings formed in drug after washing free of the drug ([1]; then washout): developed normally in culture
- inhibition of protein synthesis [2]: not inhibitory
- effect on parasite in a single cycle of expansion in culture [3]: inhibited
- effect on parasite in a single cycle of expansion in culture [4]: inhibited
- NOAEL at 384 h [5]: 8 to 10 mg/kg
- effect on sphingomyelin synthase activity ([6]; 0.05-0.5 μM PPMP): initial, rapid decrease in the sphingomyelin synthase activity
- concentration at which the second pool of enzyme is quantitatively inhibited ([6]; second pool): 100 to 500 µM
- concentration at which the sensitive pool of sphingomyelin synthase is completely inhibited ([6]; sensitive pool): 1 to 5 µM
- inhibition of DNA synthesis [7]: not inhibitory
